Results published in the supplement of paper PMC10307832.

Key:
Experiment in all cases: relative viability (nuclei count vs DMSO), 5 days (fraction); higher = more cells survive
[1] = compound: Nc1ncn([C@H]2C[C@H](O)[C@@H](CO)O2)c(=O)n1 [Decitabine] + Cc1nc(NC(=O)N2CCC[C@H]2C(N)=O)sc1-c1ccnc(C(C)(C)C(F)(F)F)c1 [Alpelisib] (partner 2 µM)
How it was run: (§1)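 Each reported value is a median over duplicate plates. It expresses relative viability: treated-well nuclei count divided by vehicle-well nuclei count. Lung cancer cell lines in 1536-well plates were dosed by pin tool a day after seeding, alone with one drug or with a fixed anchor-drug dose plus five library-drug doses (not always all listed) in √10 steps, and nuclei were counted after 5 days.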

[2] = compound: COc1cc2c(Oc3ccc4[nH]c(C)cc4c3F)ncnc2cc1OCCCN1CCCC1 [Cediranib] + CS(=O)(=O)CCNCc1ccc(-c2ccc3ncnc(Nc4ccc(OCc5cccc(F)c5)c(Cl)c4)c3c2)o1 [Lapatinib] (partner 2 µM)
How it was run: as §1

[3] = compound: O=C(C[C@H]1NCCC[C@@H]1O)Cn1cnc2cc(Br)c(Cl)cc2c1=O (racemic) [Halofuginone] + C[C@@H](Oc1cc(-c2cnn(C3CCNCC3)c2)cnc1N)c1c(Cl)ccc(F)c1Cl [Crizotinib] (partner 1 µM)
How it was run: as §1

[4] = compound: O=C(C[C@H]1NCCC[C@@H]1O)Cn1cnc2cc(Br)c(Cl)cc2c1=O (racemic) [Halofuginone] + Cc1cc(Nc2cc(N3CCN(C)CC3)nc(Sc3ccc(NC(=O)C4CC4)cc3)n2)n[nH]1 [Tozasertib] (partner 0.1 µM)
How it was run: as §1

In the case of LK-2, the relative viability ([1]; first compound 0.1265 µM) is reported as 0.986, the relative viability ([1]; first compound 0.4 µM) is reported as 0.73 and the relative viability ([1]; first compound 1.265 µM) is reported as 0.553. The relative viability ([1]; first compound 4 µM) was 0.504, the relative viability ([2]; first compound 0.04 µM) was 1.01 and the relative viability ([2]; first compound 0.1265 µM) was 0.728. For the same cell line, the relative viability ([2]; first compound 0.4 µM) was 0.842, the relative viability ([2]; first compound 1.265 µM) was 0.952 and the relative viability ([2]; first compound 4 µM) was 0.732. It also gave a relative viability ([3]; first compound 0.001 µM) of 0.198, a relative viability ([3]; first compound 0.003162 µM) of 0.242 and a relative viability ([3]; first compound 0.01 µM) of 0.198. The relative viability ([3]; first compound 0.03162 µM) was 0.229, the relative viability ([3]; first compound 0.1 µM) was 0.208 and the relative viability ([4]; first compound 0.001 µM) was 0.163. The relative viability ([4]; first compound 0.003162 µM) was 0.164, the relative viability ([4]; first compound 0.01 µM) was 0.184 and the relative viability ([4]; first compound 0.03162 µM) was 0.16. The relative viability ([4]; first compound 0.1 µM) was 0.181.

Work on NCI-H441 yielded a relative viability ([1]; first compound 0.04 µM) of 0.412, a relative viability ([1]; first compound 0.1265 µM) of 0.334 and a relative viability ([1]; first compound 0.4 µM) of 0.276. It also gave a relative viability ([1]; first compound 1.265 µM) of 0.214, a relative viability ([1]; first compound 4 µM) of 0.259 and a relative viability ([3]; first compound 0.001 µM) of 0.967. The relative viability ([3]; first compound 0.003162 µM) was 1.1, the relative viability ([3]; first compound 0.01 µM) was 0.677 and the relative viability ([3]; first compound 0.03162 µM) was 0.694. It also gave a relative viability ([3]; first compound 0.1 µM) of 0.311, a relative viability ([4]; first compound 0.001 µM) of 0.737 and a relative viability ([4]; first compound 0.003162 µM) of 0.792. The relative viability ([4]; first compound 0.01 µM) was 0.568, the relative viability ([4]; first compound 0.03162 µM) was 0.57 and the relative viability ([4]; first compound 0.1 µM) was 0.256.

NCI-H522 gave a relative viability ([4]; first compound 0.001 µM) of 0.528, a relative viability ([4]; first compound 0.003162 µM) of 0.566 and a relative viability ([4]; first compound 0.01 µM) of 0.572. For the same cell line, the relative viability ([4]; first compound 0.03162 µM) was 0.512 and the relative viability ([4]; first compound 0.1 µM) was 0.491.

NCI-H1299 gave a relative viability ([1]; first compound 0.04 µM) of 1.07, a relative viability ([1]; first compound 0.1265 µM) of 1.07 and a relative viability ([1]; first compound 0.4 µM) of 0.985. For the same cell line, the relative viability ([1]; first compound 1.265 µM) was 0.904, the relative viability ([1]; first compound 4 µM) was 0.899 and the relative viability ([2]; first compound 0.04 µM) was 1.02. The relative viability ([2]; first compound 0.1265 µM) was 0.958, the relative viability ([2]; first compound 0.4 µM) was 0.995 and the relative viability ([2]; first compound 1.265 µM) was 0.933. For the same cell line, the relative viability ([2]; first compound 4 µM) was 0.983, the relative viability ([3]; first compound 0.001 µM) was 1.03 and the relative viability ([3]; first compound 0.003162 µM) was 1.01. For the same cell line, the relative viability ([3]; first compound 0.01 µM) was 0.959, the relative viability ([3]; first compound 0.03162 µM) was 0.873 and the relative viability ([3]; first compound 0.1 µM) was 0.397.

NCI-H1395 showed a relative viability ([1]; first compound 0.04 µM) of 0.821, a relative viability ([1]; first compound 0.1265 µM) of 0.776 and a relative viability ([1]; first compound 0.4 µM) of 0.786. It also gave a relative viability ([1]; first compound 1.265 µM) of 0.518, a relative viability ([1]; first compound 4 µM) of 0.631 and a relative viability ([2]; first compound 0.04 µM) of 0.961. For the same cell line, the relative viability ([2]; first compound 0.4 µM) was 1.35, the relative viability ([2]; first compound 1.265 µM) was 0.97 and the relative viability ([2]; first compound 4 µM) was 1.01. The relative viability ([4]; first compound 0.001 µM) was 0.893, the relative viability ([4]; first compound 0.003162 µM) was 0.72 and the relative viability ([4]; first compound 0.01 µM) was 0.797. The relative viability ([4]; first compound 0.03162 µM) was 0.769 and the relative viability ([4]; first compound 0.1 µM) was 0.656.

With NCI-H1563 the relative viability ([1]; first compound 0.04 µM) was 1.06, the relative viability ([1]; first compound 0.1265 µM) was 0.965 and the relative viability ([1]; first compound 0.4 µM) was 1.02. It also gave a relative viability ([1]; first compound 1.265 µM) of 0.97, a relative viability ([1]; first compound 4 µM) of 0.824 and a relative viability ([2]; first compound 0.04 µM) of 0.89. The relative viability ([2]; first compound 0.1265 µM) was 0.66, the relative viability ([2]; first compound 0.4 µM) was 0.935 and the relative viability ([2]; first compound 1.265 µM) was 0.822. The relative viability ([2]; first compound 4 µM) was 0.78, the relative viability ([3]; first compound 0.001 µM) was 0.868 and the relative viability ([3]; first compound 0.003162 µM) was 0.835. For the same cell line, the relative viability ([3]; first compound 0.01 µM) was 0.891, the relative viability ([3]; first compound 0.03162 µM) was 0.555 and the relative viability ([3]; first compound 0.1 µM) was 0.452.

NCI-H1623 showed a relative viability ([4]; first compound 0.001 µM) of 0.487, a relative viability ([4]; first compound 0.003162 µM) of 0.44 and a relative viability ([4]; first compound 0.01 µM) of 0.459. It also gave a relative viability ([4]; first compound 0.03162 µM) of 0.459 and a relative viability ([4]; first compound 0.1 µM) of 0.426.

Cell Line NCI-H1648 has a relative viability ([4]; first compound 0.001 µM) of 0.763, a relative viability ([4]; first compound 0.003162 µM) of 0.526 and a relative viability ([4]; first compound 0.01 µM) of 0.643. The relative viability ([4]; first compound 0.03162 µM) was 0.44 and the relative viability ([4]; first compound 0.1 µM) was 0.4.

Work on NCI-H1650 yielded a relative viability ([2]; first compound 0.04 µM) of 0.955, a relative viability ([2]; first compound 0.1265 µM) of 0.183 and a relative viability ([2]; first compound 0.4 µM) of 0.802. The relative viability ([2]; first compound 1.265 µM) was 0.776, the relative viability ([2]; first compound 4 µM) was 0.665 and the relative viability ([3]; first compound 0.001 µM) was 1.05. For the same cell line, the relative viability ([3]; first compound 0.003162 µM) was 1.05, the relative viability ([3]; first compound 0.01 µM) was 0.951 and the relative viability ([3]; first compound 0.03162 µM) was 0.823. The relative viability ([3]; first compound 0.1 µM) was 0.59, the relative viability ([4]; first compound 0.001 µM) was 0.559 and the relative viability ([4]; first compound 0.003162 µM) was 0.384. It also gave a relative viability ([4]; first compound 0.01 µM) of 0.357, a relative viability ([4]; first compound 0.03162 µM) of 0.29 and a relative viability ([4]; first compound 0.1 µM) of 0.192.

Work on NCI-H1703 yielded a relative viability ([1]; first compound 0.04 µM) of 0.248, a relative viability ([1]; first compound 0.1265 µM) of 0.27 and a relative viability ([1]; first compound 0.4 µM) of 0.259. For the same cell line, the relative viability ([1]; first compound 1.265 µM) was 0.246, the relative viability ([1]; first compound 4 µM) was 0.195 and the relative viability ([2]; first compound 0.04 µM) was 1.36. It also gave a relative viability ([2]; first compound 0.1265 µM) of 1.07, a relative viability ([2]; first compound 0.4 µM) of 0.361 and a relative viability ([2]; first compound 1.265 µM) of 0.354. The relative viability ([2]; first compound 4 µM) was 0.341, the relative viability ([3]; first compound 0.001 µM) was 1.04 and the relative viability ([3]; first compound 0.003162 µM) was 0.583. For the same cell line, the relative viability ([3]; first compound 0.01 µM) was 0.538, the relative viability ([3]; first compound 0.03162 µM) was 0.592 and the relative viability ([3]; first compound 0.1 µM) was 0.28.

NCI-H1792 showed a relative viability ([1]; first compound 0.04 µM) of 0.619, a relative viability ([1]; first compound 0.1265 µM) of 0.765 and a relative viability ([1]; first compound 0.4 µM) of 0.724. For the same cell line, the relative viability ([1]; first compound 1.265 µM) was 0.383, the relative viability ([1]; first compound 4 µM) was 0.323 and the relative viability ([2]; first compound 0.04 µM) was 0.792. The relative viability ([2]; first compound 0.1265 µM) was 0.628, the relative viability ([2]; first compound 0.4 µM) was 0.863 and the relative viability ([2]; first compound 1.265 µM) was 0.875. The relative viability ([2]; first compound 4 µM) was 0.735, the relative viability ([3]; first compound 0.001 µM) was 1.04 and the relative viability ([3]; first compound 0.003162 µM) was 0.973. It also gave a relative viability ([3]; first compound 0.01 µM) of 0.985, a relative viability ([3]; first compound 0.03162 µM) of 0.959 and a relative viability ([3]; first compound 0.1 µM) of 1.03.

In the case of NCI-H1793, the relative viability ([1]; first compound 0.04 µM) is reported as 0.695, the relative viability ([1]; first compound 0.1265 µM) is reported as 0.565 and the relative viability ([1]; first compound 0.4 µM) is reported as 0.573. For the same cell line, the relative viability ([1]; first compound 1.265 µM) was 0.433, the relative viability ([1]; first compound 4 µM) was 0.392 and the relative viability ([2]; first compound 0.04 µM) was 0.838. For the same cell line, the relative viability ([2]; first compound 0.1265 µM) was 0.693, the relative viability ([2]; first compound 0.4 µM) was 0.654 and the relative viability ([2]; first compound 4 µM) was 0.742. For the same cell line, the relative viability ([4]; first compound 0.001 µM) was 0.418, the relative viability ([4]; first compound 0.003162 µM) was 0.359 and the relative viability ([4]; first compound 0.01 µM) was 0.276. For the same cell line, the relative viability ([4]; first compound 0.03162 µM) was 0.34 and the relative viability ([4]; first compound 0.1 µM) was 0.226.

Cell Line NCI-H2342 has a relative viability ([4]; first compound 0.001 µM) of 0.522, a relative viability ([4]; first compound 0.003162 µM) of 0.493 and a relative viability ([4]; first compound 0.01 µM) of 0.498. For the same cell line, the relative viability ([4]; first compound 0.03162 µM) was 0.478 and the relative viability ([4]; first compound 0.1 µM) was 0.506.

SW 900 showed a relative viability ([4]; first compound 0.001 µM) of 0.611, a relative viability ([4]; first compound 0.003162 µM) of 0.557 and a relative viability ([4]; first compound 0.01 µM) of 0.558. For the same cell line, the relative viability ([4]; first compound 0.03162 µM) was 0.46 and the relative viability ([4]; first compound 0.1 µM) was 0.258.
